# Source: US9163066B2, “Antimicrobial lytic peptides” (priority 2010, dated 2015)
# Like-named read-outs stand apart in the source and are kept apart here. Residues, ends and D or L forms follow the SMILES beside them. No end group written: not given here.
# How the values were obtained:
# [1] = test system: red blood cells (erythrocytes); test: Hemolytic activity of the peptides (hemoglobin release, absorbance at 412 nm); format: cell-based
# Protocol: Hemolysis as defined herein is an in vitro assay where the compounds tendency to lyse red blood cells is determined. Presumably, the compounds that are less hemolytic will be less toxic in vivo. Increasing amounts of compound are added to solutions containing red blood cells and left for a specified time and then lysis is determined spectrophotometrically by measuring hemoglobin release.
# A small volume of a suspension of erythrocytes (about 100 million) is kept on ice with a specific amount of lytic peptide. The cells are then placed in a 37° C. water bath for 10 min, vortexed and centrifuged at 1000 g for 2 min. The supernatant was removed and the amount of hemoglobin that was released was determined by the samples' absorbance at 412 nm. Control values without added peptide were subtracted from the absorbance readings.
# The numerical difference between the value of the mean of hemolysis and the mean of the activity is a useful way to determine those peptides having the most desired activity.
# [2] = test system: bacteria; test: Antibacterial activity of the peptides, broth microdilution MIC, mean activity (Table II); format: cell-based; conditions: overnight incubation (18 to 24 h)
# Protocol: Minimum Inhibitory Concentration or MIC for the purpose of this invention is the lowest concentration of an antimicrobial that will inhibit the visible growth of a microorganism after overnight incubation. Minimum inhibitory concentrations are important in diagnostic laboratories to confirm resistance of microorganisms to an antimicrobial agent and also to monitor the activity of new antimicrobial agents. A MIC is generally regarded as the most basic laboratory measurement of the activity of an antimicrobial agent against an organism. MBC is defined as the lowest concentration of an antimicrobial agent needed to kill 99.9% of the initial organism inoculum. Presently, specific guidelines for interpretation are not available; therefore, a clinician knowledgeable in both bactericidal testing and infectious diseases should be available to interpret the results.
# MICs were determined by the broth microdilution method described by the National Committee for Clinical Laboratory Standards (17). Serial twofold dilutions of each peptide solution were prepared (final volume, […]) in microtiter trays with appropriate medium. Each dilution series included control wells containing bacteria without peptide. A total of […] of the adjusted inoculum (100,000 organisms) was added to each well, and then the trays were incubated at
# in ambient air overnight (18 to 24 h). The MIC of each peptide for each isolate was read as the lowest concentration of peptide that inhibited visible growth of the organism.
# The above in vitro tests and analyses were conducted on a set of designed peptides of the present invention; and, for comparative purposes, naturally derived molecules.
# [3] = erythrocytes, 37° C. for 10 min
Compound,Mean of Hemolysis [1] [µM],Mean Activity [2] [µM],"Mean of Hemolysis [1, 3] [µM]"
CC[C@H](C)[C@H](NC(=O)[C@H](CCCCN)NC(=O)[C@H](C)NC(=O)[C@H](CCCNC(=N)N)NC(=O)[C@H](CC(C)C)NC(=O)[C@H](CCCNC(=N)N)NC(=O)[C@@H](NC(=O)[C@H](CCCCN)NC(=O)[C@@H](NC(=O)[C@H](CCCCN)NC(=O)[C@H](C)NC(=O)[C@H](CCCNC(=N)N)NC(=O)[C@H](CC(C)C)NC(=O)[C@H](CCCCN)NC(=O)[C@@H](N)Cc1ccccc1)C(C)C)[C@@H](C)CC)C(=O)N[C@@H](CCCCN)C(=O)N[C@@H](CC(C)C)C(=O)O [AGM 155] (H-FKLRAKVKIRLRAKIKL-OH; N-terminus and C-terminus assumed),1.6,,
CC[C@H](C)[C@H](NC(=O)[C@H](CCCCN)NC(=O)[C@@H](NC(=O)[C@H](CCCNC(=N)N)NC(=O)[C@H](CC(C)C)NC(=O)[C@H](CCCNC(=N)N)NC(=O)[C@H](C)NC(=O)[C@H](CCCCN)NC(=O)[C@@H](NC(=O)[C@H](CCCCN)NC(=O)[C@@H](N)Cc1ccccc1)[C@@H](C)CC)C(C)C)C(=O)N[C@@H](CCCCN)C(=O)N[C@@H](C)C(=O)N[C@@H](CCCNC(=N)N)C(=O)N[C@@H](CC(C)C)C(=O)N[C@@H](CCCCN)C(=O)N[C@@H](CC(C)C)C(=O)O [AGM 176] (H-FKIKARLRVKIKARLKL-OH; N-terminus and C-terminus assumed),1.3,,
CC[C@H](C)[C@H](NC(=O)[C@H](CCCNC(=N)N)NC(=O)[C@H](CC(C)C)NC(=O)[C@H](CCCCN)NC(=O)[C@@H](NC(=O)[C@H](CCCCN)NC(=O)[C@H](C)NC(=O)[C@H](CCCNC(=N)N)NC(=O)[C@@H](NC(=O)[C@H](CCCNC(=N)N)NC(=O)[C@@H](N)Cc1ccccc1)[C@@H](C)CC)C(C)C)C(=O)N[C@@H](CCCNC(=N)N)C(=O)N[C@@H](C)C(=O)N[C@@H](CCCCN)C(=O)N[C@H](C(=O)N[C@@H](CCCNC(=N)N)C(=O)N[C@@H](CC(C)C)C(=O)O)C(C)C [AGM 178] (H-FRIRAKVKLRIRAKVRL-OH; N-terminus and C-terminus assumed),1.2,,
CC[C@H](C)[C@H](NC(=O)[C@H](CCCNC(=N)N)NC(=O)[C@H](C)NC(=O)[C@H](CCCCN)NC(=O)[C@@H](NC(=O)[C@H](CCCCN)NC(=O)[C@H](CC(C)C)NC(=O)[C@H](CCCNC(=N)N)NC(=O)[C@@H](NC(=O)[C@H](CCCNC(=N)N)NC(=O)[C@H](C)NC(=O)[C@H](CCCCN)NC(=O)[C@@H](NC(=O)[C@H](CCCNC(=N)N)NC(=O)[C@@H](N)Cc1ccccc1)C(C)C)[C@@H](C)CC)C(C)C)C(=O)N[C@@H](CCCNC(=N)N)C(=O)N[C@@H](CC(C)C)C(=O)O [AGM 179] (H-FRVKARIRLKVKARIRL-OH; N-terminus and C-terminus assumed),2.1,,
CC[C@H](C)[C@H](NC(=O)[C@H](CCCNC(=N)N)NC(=O)[C@@H]1CCCN1C(=O)[C@H](Cc1cnc[nH]1)NC(=O)[C@@H]1CCCN1C(=O)[C@@H]1CCCN1C(=O)[C@H](CCCNC(=N)N)NC(=O)[C@@H]1CCCN1C(=O)[C@H](CCC(N)=O)NC(=O)[C@@H]1CCCN1C(=O)[C@@H](NC(=O)[C@H](Cc1ccc(O)cc1)NC(=O)[C@@H](NC(=O)[C@@H]1CCCN1C(=O)[C@H](CCCNC(=N)N)NC(=O)[C@H](CC(N)=O)NC(=O)[C@H](CC(N)=O)NC(=O)CN)C(C)C)[C@@H](C)CC)C(=O)O [Apidaecin IA] (H-GNNRPVYIPQPRPPHPRI-OH),1.6,20.67,
CC[C@H](C)[C@H](NC(=O)CNC(=O)[C@H](CC(N)=O)NC(=O)[C@H](CCCNC(=N)N)NC(=O)[C@@H](NC(=O)[C@H](CC(N)=O)NC(=O)[C@H](CCCNC(=N)N)NC(=O)CNC(=O)[C@H](CCSC)NC(=O)[C@H](CCCCN)NC(=O)[C@H](CCC(=O)O)NC(=O)[C@@H](NC(=O)[C@H](CCCCN)NC(=O)[C@H](CCCCN)NC(=O)[C@H](Cc1ccccc1)NC(=O)[C@@H](NC(=O)[C@H](CCCCN)NC(=O)[C@H](Cc1c[nH]c2ccccc12)NC(=O)[C@@H](N)CCCCN)C(C)C)[C@@H](C)CC)[C@@H](C)CC)C(=O)N[C@H](C(=O)N[C@@H](CCCCN)C(=O)N[C@@H](C)C(=O)NCC(=O)N1CCC[C@H]1C(=O)N[C@@H](C)C(=O)N[C@H](C(=O)N[C@@H](C)C(=O)N[C@H](C(=O)N[C@@H](CC(C)C)C(=O)NCC(=O)N[C@@H](CCC(=O)O)C(=O)N[C@@H](C)C(=O)N[C@@H](CCCCN)C(=O)N[C@@H](C)C(=O)N[C@@H](CC(C)C)C(N)=O)C(C)C)[C@@H](C)CC)C(C)C [Cecropin B] (H-KWKVFKKIEKMGRNIRNGIVKAGPAIAVLGEAKAL-NH2),1.2,,
CC[C@H](C)[C@H](NC(=O)[C@@H]1CCCN1C(=O)[C@H](CCCNC(=N)N)NC(=O)[C@@H]1CCCN1C(=O)[C@H](Cc1cnc[nH]1)NC(=O)[C@H](CO)NC(=O)[C@@H](NC(=O)[C@@H]1CCCN1C(=O)[C@H](CCCNC(=N)N)NC(=O)[C@@H]1CCCN1C(=O)[C@H](CO)NC(=O)[C@H](Cc1ccc(O)cc1)NC(=O)[C@@H]1CCCN1C(=O)[C@H](CCCNC(=N)N)NC(=O)[C@@H]1CCCN1C(=O)[C@H](CCCCN)NC(=O)CN)[C@@H](C)O)C(=O)N[C@@H](CCCNC(=N)N)C(=O)N[C@H](C(=O)O)C(C)C [Drosocin] (H-GKPRPYSPRPTSHPRPIRV-OH),1.6,21,
CC[C@H](C)[C@H](NC(=O)CN)C(=O)NCC(=O)N[C@@H](C)C(=O)N[C@H](C(=O)N[C@@H](CC(C)C)C(=O)N[C@@H](CCCCN)C(=O)N[C@H](C(=O)N[C@@H](CC(C)C)C(=O)N[C@H](C(=O)N[C@H](C(=O)NCC(=O)N[C@@H](CC(C)C)C(=O)N1CCC[C@H]1C(=O)N[C@@H](C)C(=O)N[C@@H](CC(C)C)C(=O)N[C@H](C(=O)N[C@@H](CO)C(=O)N[C@@H](Cc1c[nH]c2ccccc12)C(=O)N[C@H](C(=O)N[C@@H](CCCCN)C(=O)N[C@@H](CCCNC(=N)N)C(=O)N[C@@H](CCCCN)C(=O)N[C@@H](CCCNC(=N)N)C(=O)N[C@@H](CCC(N)=O)C(=O)N[C@@H](CCC(N)=O)C(N)=O)[C@@H](C)CC)[C@@H](C)CC)[C@@H](C)O)[C@@H](C)O)C(C)C)C(C)C [Melittin],,1.33,100.8
Cecropin A,,3.83,
Histatin-5,1.8,30,
Indolicidin,2,5.33,
LL-37,5.1,1,
"Magainin I: Magainins: 23 amino acids in length, derived from the African Clawed Frog (GIGKFLHSAGKFGKAFVGEIMKS; Magainin-1; UniProt P11006 37-59, looked up)",1.3,30,
Magainin II,1.5,30,
"Pyrrhocoricin (D): naturally derived molecule tested for comparative purposes (VDKGSYLPRPTPPRPIYNRN; not fully specified; UniProt P37362 1-20, looked up)",,23.33,1.9
